Data reported in patent US6620811B2, “Isonicotin- and nicotinamide derivatives of benzothiazoles” (Hoffmann-La Roche Inc., priority 2001, dated 2003).

Experiments:
[1] = target: T1, human adenosine A2A receptor (Homo sapiens, UniProt P29274); experiment: Human adenosine A2A receptor [3H]-SCH-583261 binding assay (SPA, CHO cell membranes); conditions: [3H]-SCH-583261 1 nM; membranes of CHO cells expressing the recombinant receptor; Ki by Cheng-Prussoff equation; read-out: hA2 (pKi) (converted)
T1 construct: expressed in transfected cells; host or cells: CHO cells, semliki forest virus expression system; membrane preparation
Experimental: Human Adenosine A2A Receptor
The human adenosine A2A receptor was recombinantly expressed in chinese hamster ovary (CHO) cells using the semliki forest virus expression system. Cells were harvested, washed twice by centrifugation, homogenised and again washed by centrifugation. The final washed membrane pellet was suspended in a Tris (50 mM) buffer containing 120 mM NaCl, 5 mM KCl, 2 mM CaCl2 and 10 mM MgCl2 (pH 7.4) (buffer A). The [^3H]-SCH-583261 (Dionisotti et al., 1997, Br J Pharmacol 121, 353; 1 nM) binding assay was carried out in 96-well plates in the presence of 2.5 μg of membrane protein, 0.5 mg of Ysi-poly-1-lysine SPA beads and 0.1 U adenosine deaminiase in a final volume of 200 μl of buffer A. Non-specific binding was defined using xainthine amine congener (XAC; 2 μM). Compounds were tested at 10 concentrations from 10 μM-0.3 nM. All assays were conducted in duplicate and repeated at least two times. Assay plates were incubated for 1 hour at room temperature before centrifugation and then bound ligand determined using a Packard Topcount scintillation counter. IC50 values were calculated using a non-linear curve fitting program and Ki values calculated using the Cheng-Prussoff equation.

T1 sequence (P29274 whole entry): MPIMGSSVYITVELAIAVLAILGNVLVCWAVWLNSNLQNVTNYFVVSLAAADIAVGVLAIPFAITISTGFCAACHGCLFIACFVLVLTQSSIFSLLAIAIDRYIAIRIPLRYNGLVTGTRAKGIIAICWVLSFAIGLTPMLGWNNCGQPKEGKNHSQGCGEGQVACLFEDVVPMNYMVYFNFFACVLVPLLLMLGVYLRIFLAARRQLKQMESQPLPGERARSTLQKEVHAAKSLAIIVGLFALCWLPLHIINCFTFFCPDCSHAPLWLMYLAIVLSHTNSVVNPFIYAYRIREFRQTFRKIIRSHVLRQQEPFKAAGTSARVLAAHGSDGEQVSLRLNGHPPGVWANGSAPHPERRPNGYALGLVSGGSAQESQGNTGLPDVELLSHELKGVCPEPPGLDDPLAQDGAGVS

**Q.** For `COc1ccc(N2CCOCC2)c2sc(NC(=O)c3ccnc(CN4CCC(O)CC4)c3)nc12` [Example 102, 2-(4-Hydroxy-piperidin-1-yl-methyl)-N-(4-methoxy-7-morpholin-4-yl-benzothiazol-2-yl)-isonicotinamide], which Ki [1] is on record?
**A.** 2 nM

**Q.** What about the melting point of the same compound?
**A.** 125 °C

**Q.** For `COc1ccc(N2CCOCC2)c2sc(NC(=O)c3ccnc(Cn4ccnc4C)c3)nc12` [Example 107, N-(4-Methoxy-7-morpholin-4-yl-benzothiazol-2-yl)-2-(2-methyl-imidazol-1-ylmethyl)-isonicotinamide], which melting point is on record?
**A.** 264 to 265 °C

**Q.** With `COC[C@H]1CCN(Cc2cc(C(=O)Nc3nc4c(OC)ccc(N5CCOCC5)c4s3)ccn2)C1` [Example 106, (S)-2-(3-Methoxymethyl-pyrrolidin-1-ylmethyl)-N-(4-methoxy-7-morpholin-4-yl-benzothiazol-2-yl)-isonicotinamide] as the compound, how does the melting point read?
**A.** 93 to 96 °C

**Q.** With `COC[C@@H]1CCCN1Cc1cc(C(=O)Nc2nc3c(OC)ccc(N4CCOCC4)c3s2)ccn1` [Example 105, (S)-2-(2-Methoxymethyl-pyrrolidin-1-ylmethyl)-N-(4-methoxy-7-morpholin-4-yl-benzothiazol-2-yl)-isonicotinamide] as the compound, how does the melting point read?
**A.** 110 to 113 °C

**Q.** With `CCSCc1cc(C(=O)Nc2nc3c(OC)ccc(N4CCOCC4)c3s2)ccn1` [Example 103, 2-Ethylsulfanylmethyl-N-(4-methoxy-7-morpholin-4-yl-benzothiazol-2-yl)-isonicotinamide] as the compound, how does the Ki [1] read?
**A.** 1.58 nM

**Q.** What about the melting point of the same compound?
**A.** 158 to 159 °C

**Q.** For `CCOCCN(C)Cc1cc(C(=O)Nc2nc3c(OC)ccc(N4CCOCC4)c3s2)ccn1` [Example 104, 2-{[(2-Ethoxy-ethyl)-methyl-amino]-methyl}-N-(4-methoxy-7-morpholin-4-yl-benzothiazol-2-yl)-isonicotinamide], which Ki [1] is on record?
**A.** 3.16 nM

**Q.** What about the melting point of the same compound?
**A.** 159 to 160 °C

**Q.** For `COc1ccc(N2CCOCC2)c2sc(NC(=O)c3ccnc(CN(C)C(C)=O)c3)nc12` [Example 108, 2-[(Acetyl-methyl-amino)-methyl]-N-(4-methoxy-7-morpholin-4-yl-benzothiazol-2-yl)-isonicotinamide], which melting point is on record?
**A.** 228 to 230 °C

**Q.** With `COc1ccc(N2CCOCC2)c2sc(NC(=O)c3ccnc(NC4CCCC4)c3)nc12` [Example 89, 2-Cyclopentylamino-N-(4-methoxy-7-morpholin-4-yl-benzothiazol-2-yl)-isonicotinamide] as the compound, how does the Ki [1] read?
**A.** 1.48 nM

**Q.** For `COc1cc(C(=O)Nc2nc3c(OC)ccc(-c4ccccc4)c3s2)ccn1` [Example 101, 2-Methoxy-N-(4-methoxy-7-phenyl-benzothiazol-2-yl)-isonicotinamide], which Ki [1] is on record?
**A.** 1.26 nM

**Q.** For `COc1ccc(N2CCCCC2)c2sc(NC(=O)c3ccnc(N4CCN(C)CC4)c3)nc12` [Example 100, N-(4-Methoxy-7-piperidin-1-yl-benzothiazol-2-yl)-2-(4-methyl-piperazin-1-yl)-isonicotinamide], which Ki [1] is on record?
**A.** 1.55 nM

**Q.** For `COc1ccc(N2CCOCC2)c2sc(NC(=O)c3ccnc(N(C)CCc4ccccc4)c3)nc12` [Example 97, N-(4-Methoxy-7-morpholin-4-yl-benzothiazol-2-yl)-2-(methyl-phenethyl-amino)-isonicotinamide], which Ki [1] is on record?
**A.** 2.24 nM

**Q.** Which Ki [1] does the source give for `CNCc1cc(C(=O)Nc2nc3c(OC)ccc(N4CCOCC4)c3s2)ccn1` [Example 58, N-(4-Methoxy-7-morpholin-4-yl-benzothiazol-2-yl)-2-methylaminomethyl-isonicotinamide] here?
**A.** 2 nM

**Q.** Which Ki [1] does the source give for `COc1ccc(N2CCOCC2)c2sc(NC(=O)c3ccnc(N4CC(O)C4)c3)nc12` [Example 74, 2-(3-Hydroxy-azetidin-1-yl)-N-(4-methoxy-7-morpholin-4-yl-benzothiazol-2-yl)-isonicotinamide] here?
**A.** 1.35 nM

**Q.** With `CCCCNCc1cc(C(=O)Nc2nc3c(OC)ccc(N4CCOCC4)c3s2)ccn1` [Example 52, 2-Butylaminomethyl-N-(4-methoxy-7-morpholin-4-yl-benzothiazol-2-yl)-isonicotinamide] as the compound, how does the Ki [1] read?
**A.** 1.58 nM

**Q.** For `COC(=O)N(C)Cc1cc(C(=O)Nc2nc3c(OC)ccc(N4CCOCC4)c3s2)ccn1` [Example 65, [4-(4-Methoxy-7-morpholin-4-yl-benzothiazol-2-yl-carbamoyl)-pyridin-2-ylmethyl]-methyl-carbamic Acid Methyl Ester], which Ki [1] is on record?
**A.** 3.16 nM

**Q.** Which Ki [1] does the source give for `COCCOc1cc(C(=O)Nc2nc3c(OC)ccc(N4CCOCC4)c3s2)ccn1` [Example 1, 2-(2-Methoxy-ethoxy)-N-(4-methoxy-7-morpholin-4-yl-benzothiazol-2-yl)-isonicotinamide] here?
**A.** 3.16 nM

**Q.** For `COc1ccc(N2CCOCC2)c2sc(NC(=O)c3ccnc(N(C)Cc4ccccc4)c3)nc12` [Example 96, 2-(Benzyl-methyl-amino)-N-(4-methoxy-7-morpholin-4-yl-benzothiazol-2-yl)-isonicotinamide], which Ki [1] is on record?
**A.** 1.62 nM

**Q.** For `COc1ccc(N2CCOCC2)c2sc(NC(=O)c3ccnc(CN4CCCC4)c3)nc12` [Example 54, N-(4-Methoxy-7-morpholin-4-yl-benzothiazol-2-yl)-2-pyrrolidin-1-ylmethyl-isonicotinamide], which Ki [1] is on record?
**A.** 2 nM

**Q.** Which Ki [1] does the source give for `COc1ccc(N2CCOCC2)c2sc(NC(=O)c3ccnc(N4CC(OC)C4)c3)nc12` [Example 75, 2-(3-Methoxy-azetidin-1-yl)-N-(4-methoxy-7-morpholin-4-yl-benzothiazol-2-yl)-isonicotinamide] here?
**A.** 1.91 nM

**Q.** With `CCOc1cc(C(=O)Nc2nc3c(OC)ccc(N4CCOCC4)c3s2)ccn1` [Example 3, 2-Ethoxy-N-(4-methoxy-7-morpholin-4-yl-benzothiazol-2-yl)-isonicotinamide] as the compound, how does the Ki [1] read?
**A.** 3.09 nM

**Q.** For `COc1ccc(N2CCOCC2)c2sc(NC(=O)c3ccnc(C4CCCCC4)c3)nc12` [Example 24, 2-Cyclohexyl-N-(4-methoxy-7-morpholin-4-yl-benzothiazol-2-yl)-isonicotinamide], which Ki [1] is on record?
**A.** 2.24 nM
